pIC50: −log10 of the molar value.
Legend:
Leishmania = conditions: at 30 µM
Description: Inhibition of Leishmania CRK3/CYC6 using histone H1/[gamma33-P]ATP as substrate at 30 uM after 30 mins relative to control

[1] = Cytotoxicity against human BJ cells assessed as cell viability at 30 uM after 72 hrs by fluorescence assay relative to control
[2] = Inhibition of Leishmania CRK3/CYC6 using histone H1/[gamma33-P]ATP as substrate after 30 mins
[3] = Leshmanicidal activity against promastigote stage of Leishmania turanica MRHO/MN/08/BZ18 after 72 hrs by alamar blue staining-based fluorescence assay; type: functional
Leishmania major = experiment: Leshmanicidal activity against promastigote stage of Leishmania major MHOM/IL/2003/LRC-L1025 […] after 72 hrs by alamar blue staining-based fluorescence assay; type: functional, organism-based; conditions: MHOM/IL/2003/LRC-L1025, 72 h
Leishmania donovani = experiment: Leshmanicidal activity against promastigote stage of Leishmania donovani MHOM/SD/1962/1S-c12d […] after 72 hrs by alamar blue staining-based fluorescence assay; type: functional, organism-based

| SMILES | inhibition (Leishmania) [%] | viability at 72 h, 30 µM ([1]; BJ cells) [%] | pIC50 [2] | pIC50 [3] | pIC50 (Leishmania major) | pIC50 (Leishmania donovani) | viability at 72 h, 30 µM ([1]; bj) [%] |
| --- | --- | --- | --- | --- | --- | --- | --- |
| CC[C@H](CO)Nc1nc(NC(CO)c2ccccc2)c2ncn(C(C)C)c2n1 (stereo not given in full) | 33.5 | 102 |  |  |  |  |  |
| CC[C@H](CO)Nc1nc(NCc2cccc(O)c2O)c2ncn(C(C)C)c2n1 | 2.6 | 80.1 | 6.50 | < 4.30 |  |  |  |
| CC[C@H](CO)Nc1nc(NCc2ccc(Br)cc2)c2ncn(C(C)C)c2n1 | 10 | 92.3 |  | 4.70 | 4.71 | 4.77 |  |
| CC(C)n1cnc2c(NCc3ccc(O)cc3)nc(NCCCO)nc21 | 53.3 | 84.9 |  |  |  |  |  |
| CC[C@H](CO)Nc1nc(Nc2ccc(S(=O)(=O)Nc3nc(C)cc(C)n3)cc2)c2ncn(C(C)C)c2n1 | 1.2 | 105 |  |  |  |  |  |
| CC[C@H](CO)Nc1nc(NCc2ccccc2)c2ncn(C(C)C)c2n1 [SELICICLIB] | 38.6 | 106 |  |  |  |  |  |
| CC(C)n1cnc2c(NCc3ccccc3)nc(NCCN)nc21 | 57.5 | 95.2 |  |  |  |  |  |
| CC(C)n1cnc2c(NCc3ccccc3)nc(NC[C@H](O)CN)nc21 | 43.2 | 74.5 |  |  |  |  |  |
| CC(C)n1cnc2c(NCc3ccccc3)nc(NCCOCCO)nc21 | 56.5 | 69.9 |  |  |  |  |  |
| CC(C)n1cnc2c(NCc3ccccc3)nc(NCCCCCC#N)nc21 | 49 | 77.8 |  |  |  |  |  |
| CC(C)n1cnc2c(NCc3ccccc3)nc(N(CCO)CCO)nc21 | 47.1 | 133 |  |  |  |  |  |
| CC[C@H](CO)Nc1nc(NCc2ccc(OC)cc2O)c2ncn(C(C)C)c2n1 | 53.1 | 82.3 |  |  |  |  |  |
| CC(C)n1cnc2c(NCc3ccccc3O)nc(N3CCNCC3)nc21 | 55.6 | 127 |  |  |  |  |  |
| CC(C)n1cnc2c(NCc3cccc(O)c3)nc(NCCCO)nc21 | 64.6 | 74.6 |  |  |  |  |  |
| CC[C@H](CO)Nc1nc(NCc2cc(OC)c(O)c(OC)c2)c2ncn(C(C)C)c2n1 | 8.3 | 103 |  |  |  |  |  |
| COc1cccc(CNc2nc(N[C@H]3CC[C@H](N)CC3)nc3c2ncn3C(C)C)c1O | 10.8 | 87.9 |  |  |  |  |  |
| CC(C)n1cnc2c(NCc3ccccc3)nc(NCCCN)nc21 | 46.2 | 100 |  |  |  |  |  |
| CC[C@H](CO)Nc1nc(NCc2ccc(O)cc2)c2ncn(C(C)C)c2n1 | 21.3 | 91.6 |  |  |  |  |  |
| CC[C@H](CO)Nc1nc(Nc2ccc(S(N)(=O)=O)cc2)c2ncn(C(C)C)c2n1 | 2.2 | 76.7 | 6.67 | < 4.30 |  |  |  |
| CC(C)n1cnc2c(NCc3ccccc3)nc(NC[C@H](C)O)nc21 | 53.9 | 94.7 |  |  |  |  |  |

| SMILES | inhibition (Leishmania) [%] | viability at 72 h, 30 µM ([1]; BJ cells) [%] | pIC50 [2] | pIC50 [3] | pIC50 (Leishmania major) | pIC50 (Leishmania donovani) | viability at 72 h, 30 µM ([1]; bj) [%] |
| --- | --- | --- | --- | --- | --- | --- | --- |
| CC[C@H](CO)Nc1nc(NCc2cc(C)ccc2O)c2ncn(C(C)C)c2n1 | 0.4 | 70.4 | 6.79 | 4.93 | 5.64 | 5.66 |  |
| CC[C@H](CO)Nc1nc(NCc2ccccc2O)c2ncn(C(C)C)c2n1 [OLOMOUCINE II] | 1.8 | 79.8 | 6.23 | 4.92 | 4.33 | 4.20 |  |
| CC(C)n1cnc2c(NCc3ccccc3O)nc(NCCCO)nc21 | 10.5 | 85 |  |  |  |  |  |
| COc1cccc(CNc2nc(N[C@@H]3CCCC[C@H]3N)nc3c2ncn3C(C)C)c1O | 33.6 | 87.4 |  |  |  |  |  |
| CC[C@H](CO)Nc1nc(NCc2cccc(O)c2)c2ncn(C(C)C)c2n1 | 36.4 | 85.6 |  |  |  |  |  |
| CC(C)n1cnc2c(NCc3ccccc3O)nc(N[C@@H]3CCCC[C@H]3N)nc21 | 29.4 | 98.7 |  |  |  |  |  |
| CC(C)n1cnc2c(NCc3ccccc3)nc(NCCCO)nc21 [BOHEMINE] | 49.2 |  |  |  |  |  | 120 |
| CCOC(=O)c1ccc(Nc2nc(N[C@H](CC)CO)nc3c2ncn3C(C)C)cc1 | 5.6 | 70.1 |  |  |  |  |  |
| CC[C@H](CO)Nc1nc(NCc2cc(O)cc(O)c2)c2ncn(C(C)C)c2n1 | 15.9 | 83.9 |  |  |  |  |  |
| CC[C@H](CO)Nc1nc(NCc2ccccc2N)c2ncn(C(C)C)c2n1 | 9.8 | 95.7 |  |  |  |  |  |
| CC(C)n1cnc2c(NCc3ccccc3O)nc(NCc3ccccc3O)nc21 | 37.8 | 97.5 |  |  |  |  |  |
| CC(C)n1cnc2c(NCc3ccccc3)nc(N)nc21 | 87.1 | 72.2 |  |  |  |  |  |
| CC(C)n1cnc2c(NCc3ccccc3)nc(NCCO)nc21 | 66.6 | 74.2 |  |  |  |  |  |
| CC(C)n1cnc2c(NCc3ccccc3O)nc(N[C@H]3CC[C@H](N)CC3)nc21 | 12.2 | 90.4 |  |  |  |  |  |
| CC[C@H](CO)Nc1nc(Nc2ccc(S(=O)(=O)NC(=N)N)cc2)c2ncn(C(C)C)c2n1 | 0.3 | 84.4 | 6.94 | < 4.30 |  |  |  |
| CC[C@H](CO)Nc1nc(NCc2cccc(C)c2O)c2ncn(C(C)C)c2n1 | 3.3 | 82.9 | 5.78 | 4.64 | 4.70 | 4.91 |  |
| CC[C@H](CO)Nc1nc(NCc2cc(O)ccc2O)c2ncn(C(C)C)c2n1 | 1.5 | 97.7 | 6.42 | < 4.30 |  |  |  |
| CC(C)n1cnc2c(NCc3ccccc3O)nc(N3CCN(CC#N)CC3)nc21 | 71.7 | 91.8 |  |  |  |  |  |
| CC[C@H](CO)Nc1nc(NCc2cccc(OC)c2O)c2ncn(C(C)C)c2n1 | 2 | 89 | 6.19 | 4.45 | 4.01 | 4.02 |  |
